Laboratory results reported in the kinase profiling compilation of Christmann-Franck et al. (2016).

How the values were obtained:
Experiment in all cases: radiometric filter-binding kinase assay
AURKA (human) = AURKA (human) (UniProt O14965)
BRSK1 (human) = BRSK1 (human) (UniProt Q8TDC3)
BRSK2 (human) = BRSK2 (human) (UniProt Q8IWQ3)
CDK2 CCNA2 (human) = CDK2 CCNA2 (human) (UniProt P20248+P24941)
CLK2 (human) = CLK2 (human) (UniProt P49760)
CSK (human) = CSK (human) (UniProt P41240)
CSNK1D (human) = CSNK1D (human) (UniProt P48730)
EPHA4 (human) = EPHA4 (human) (UniProt P54764)
Sequence of EPHA4 (human) (P54764 whole entry, looked up): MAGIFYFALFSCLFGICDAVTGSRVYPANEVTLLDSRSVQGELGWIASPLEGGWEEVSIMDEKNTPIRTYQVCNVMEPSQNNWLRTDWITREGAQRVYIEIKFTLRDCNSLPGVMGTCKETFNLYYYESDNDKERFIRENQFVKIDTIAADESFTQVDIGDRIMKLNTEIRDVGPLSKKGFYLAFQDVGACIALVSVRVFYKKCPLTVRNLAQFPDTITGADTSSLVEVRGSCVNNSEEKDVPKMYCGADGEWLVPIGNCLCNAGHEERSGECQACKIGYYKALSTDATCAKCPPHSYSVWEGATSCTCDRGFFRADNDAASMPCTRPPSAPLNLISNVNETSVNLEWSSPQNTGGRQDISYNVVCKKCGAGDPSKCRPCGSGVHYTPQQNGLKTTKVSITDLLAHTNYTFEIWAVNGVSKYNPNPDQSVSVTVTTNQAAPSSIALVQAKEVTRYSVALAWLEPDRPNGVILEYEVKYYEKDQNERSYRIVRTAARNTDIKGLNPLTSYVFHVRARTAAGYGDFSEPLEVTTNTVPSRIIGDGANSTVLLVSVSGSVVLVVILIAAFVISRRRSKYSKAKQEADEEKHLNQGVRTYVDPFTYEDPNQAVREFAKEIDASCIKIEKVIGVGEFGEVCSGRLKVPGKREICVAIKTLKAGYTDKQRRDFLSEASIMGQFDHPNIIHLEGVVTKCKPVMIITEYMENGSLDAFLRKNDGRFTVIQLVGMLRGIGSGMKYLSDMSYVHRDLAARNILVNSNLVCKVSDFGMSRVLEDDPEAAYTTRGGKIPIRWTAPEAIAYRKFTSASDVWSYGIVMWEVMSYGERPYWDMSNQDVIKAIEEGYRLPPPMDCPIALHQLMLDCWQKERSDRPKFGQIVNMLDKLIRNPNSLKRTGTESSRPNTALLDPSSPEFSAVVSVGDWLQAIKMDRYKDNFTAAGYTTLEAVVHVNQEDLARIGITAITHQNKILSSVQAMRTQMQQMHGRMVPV

EPHB2 (human) = EPHB2 (human) (UniProt P29323)
FGFR1 (human) = FGFR1 (human) (UniProt P11362)
FLT1 (human) = FLT1 (human) (UniProt P17948)
INSR (human) = INSR (human) (UniProt P06213)
INSRR (human) = INSRR (human) (UniProt P14616)
IRAK4 (human) = IRAK4 (human) (UniProt Q9NWZ3)
Sequence of IRAK4 (human) (Q9NWZ3 whole entry, looked up): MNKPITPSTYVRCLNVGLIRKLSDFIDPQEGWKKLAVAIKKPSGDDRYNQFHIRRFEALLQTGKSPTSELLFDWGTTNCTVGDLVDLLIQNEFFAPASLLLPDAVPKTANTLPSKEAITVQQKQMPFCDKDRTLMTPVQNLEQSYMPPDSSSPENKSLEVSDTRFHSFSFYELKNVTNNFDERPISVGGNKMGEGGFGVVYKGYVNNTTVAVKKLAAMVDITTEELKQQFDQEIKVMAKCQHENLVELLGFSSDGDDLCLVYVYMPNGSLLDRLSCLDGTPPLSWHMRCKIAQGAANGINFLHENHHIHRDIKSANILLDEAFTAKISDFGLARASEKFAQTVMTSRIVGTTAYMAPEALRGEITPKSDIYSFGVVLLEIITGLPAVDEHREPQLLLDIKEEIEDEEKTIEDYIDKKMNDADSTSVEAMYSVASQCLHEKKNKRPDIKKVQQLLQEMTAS

JAK2 JH1 JH2 (human) = JAK2 JH1 JH2 (human) (UniProt O60674)
MAP2K2 (human) = MAP2K2 (human) (UniProt P36507)
MAP3K11 (human) = MAP3K11 (human) (UniProt Q16584)
MAP3K7 TAB1 (human) = MAP3K7 TAB1 (human) (UniProt Q15750+O43318)
MAPK12 (human) = MAPK12 (human) (UniProt P53778)
MAPK8 (human) = MAPK8 (human) (UniProt P45983)
MAPKAPK3 (human) = MAPKAPK3 (human) (UniProt Q16644)
MARK4 (human) = MARK4 (human) (UniProt Q96L34)
MELK (human) = MELK (human) (UniProt Q14680)
MYLK (human) = MYLK (human) (UniProt Q15746)
Sequence of MYLK (human) (Q15746 whole entry, looked up): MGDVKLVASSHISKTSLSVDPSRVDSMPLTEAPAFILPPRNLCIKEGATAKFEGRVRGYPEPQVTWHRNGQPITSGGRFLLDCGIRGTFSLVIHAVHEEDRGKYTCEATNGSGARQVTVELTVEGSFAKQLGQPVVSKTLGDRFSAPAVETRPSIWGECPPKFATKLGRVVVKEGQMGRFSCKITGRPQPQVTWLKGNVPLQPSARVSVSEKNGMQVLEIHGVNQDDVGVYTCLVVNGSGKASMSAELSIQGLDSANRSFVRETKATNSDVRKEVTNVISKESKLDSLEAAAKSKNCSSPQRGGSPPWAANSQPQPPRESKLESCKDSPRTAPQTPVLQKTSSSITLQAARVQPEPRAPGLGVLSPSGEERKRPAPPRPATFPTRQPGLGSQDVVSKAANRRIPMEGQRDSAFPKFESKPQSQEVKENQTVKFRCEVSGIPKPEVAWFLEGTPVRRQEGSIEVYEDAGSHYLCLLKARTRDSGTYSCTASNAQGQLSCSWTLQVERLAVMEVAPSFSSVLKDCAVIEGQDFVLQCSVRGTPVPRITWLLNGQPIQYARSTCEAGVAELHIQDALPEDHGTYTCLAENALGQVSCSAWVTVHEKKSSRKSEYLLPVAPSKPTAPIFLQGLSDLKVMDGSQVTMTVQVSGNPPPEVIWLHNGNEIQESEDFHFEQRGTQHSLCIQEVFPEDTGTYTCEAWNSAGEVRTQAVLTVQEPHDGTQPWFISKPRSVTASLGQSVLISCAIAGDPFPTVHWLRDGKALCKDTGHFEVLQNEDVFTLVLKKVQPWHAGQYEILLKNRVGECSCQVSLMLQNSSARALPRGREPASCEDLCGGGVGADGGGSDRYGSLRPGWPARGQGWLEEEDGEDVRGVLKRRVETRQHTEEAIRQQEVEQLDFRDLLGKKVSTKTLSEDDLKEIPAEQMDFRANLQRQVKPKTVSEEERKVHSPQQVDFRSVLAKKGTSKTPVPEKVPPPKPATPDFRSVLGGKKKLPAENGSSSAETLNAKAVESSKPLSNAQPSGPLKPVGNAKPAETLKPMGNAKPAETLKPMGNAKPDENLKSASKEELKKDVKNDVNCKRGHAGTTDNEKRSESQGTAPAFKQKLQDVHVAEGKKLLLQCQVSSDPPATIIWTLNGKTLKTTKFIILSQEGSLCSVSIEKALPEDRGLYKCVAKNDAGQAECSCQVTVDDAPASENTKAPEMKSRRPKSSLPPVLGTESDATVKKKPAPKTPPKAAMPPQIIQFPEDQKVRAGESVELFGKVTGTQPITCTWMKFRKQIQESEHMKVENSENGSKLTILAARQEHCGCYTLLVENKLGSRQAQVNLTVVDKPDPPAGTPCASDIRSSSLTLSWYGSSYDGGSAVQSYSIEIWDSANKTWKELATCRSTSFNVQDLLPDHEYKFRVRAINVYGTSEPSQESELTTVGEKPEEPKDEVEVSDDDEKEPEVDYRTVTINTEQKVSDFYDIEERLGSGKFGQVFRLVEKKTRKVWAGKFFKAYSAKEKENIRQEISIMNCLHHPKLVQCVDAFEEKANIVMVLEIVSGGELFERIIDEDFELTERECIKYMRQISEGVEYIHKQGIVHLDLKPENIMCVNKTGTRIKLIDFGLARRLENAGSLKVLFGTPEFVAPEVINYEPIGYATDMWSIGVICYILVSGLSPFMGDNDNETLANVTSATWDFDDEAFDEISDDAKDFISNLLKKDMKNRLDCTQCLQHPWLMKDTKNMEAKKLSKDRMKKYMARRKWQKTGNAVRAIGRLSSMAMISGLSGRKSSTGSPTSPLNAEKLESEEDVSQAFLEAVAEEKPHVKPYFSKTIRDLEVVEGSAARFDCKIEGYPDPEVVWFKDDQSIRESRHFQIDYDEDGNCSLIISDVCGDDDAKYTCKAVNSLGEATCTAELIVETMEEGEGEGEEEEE

[1] = test system: PAK2 (human), Q13177 [T402E]
PIM1 (human) = PIM1 (human) (UniProt P11309)
PIM3 (human) = PIM3 (human) (UniProt Q86V86)
PLK1 (human) = PLK1 (human) (UniProt P53350)
RIPK2 (human) = RIPK2 (human) (UniProt O43353)
Sequence of RIPK2 (human) (O43353 whole entry, looked up): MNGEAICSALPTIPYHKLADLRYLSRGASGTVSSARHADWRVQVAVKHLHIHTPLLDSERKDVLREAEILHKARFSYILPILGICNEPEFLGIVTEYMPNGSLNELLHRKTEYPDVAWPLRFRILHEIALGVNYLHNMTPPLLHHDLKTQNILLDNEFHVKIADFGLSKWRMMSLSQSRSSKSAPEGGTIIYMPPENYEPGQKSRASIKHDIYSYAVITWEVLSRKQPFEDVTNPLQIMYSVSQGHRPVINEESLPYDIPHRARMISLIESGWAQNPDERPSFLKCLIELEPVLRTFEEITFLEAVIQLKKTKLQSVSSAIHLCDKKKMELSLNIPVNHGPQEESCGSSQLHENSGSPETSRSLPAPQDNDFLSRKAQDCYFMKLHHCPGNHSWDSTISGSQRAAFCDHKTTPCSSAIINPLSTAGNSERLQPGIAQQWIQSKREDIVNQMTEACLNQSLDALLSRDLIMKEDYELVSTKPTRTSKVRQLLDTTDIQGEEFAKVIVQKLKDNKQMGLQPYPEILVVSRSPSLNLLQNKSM

RPS6KA3 KD1 KD2 (human) = RPS6KA3 KD1 KD2 (human) (UniProt P51812)
[2] = test system: RPS6KB1 (human), P23443 [T412E]
[3] = test system: SGK1 (human), O00141 [S422D]
SYK (human) = SYK (human) (UniProt P43405)
TBK1 (human) = TBK1 (human) (UniProt Q9UHD2)
TTK (human) = TTK (human) (UniProt P33981)

Sequence of BRSK2 (human) (Q8IWQ3 whole entry, looked up): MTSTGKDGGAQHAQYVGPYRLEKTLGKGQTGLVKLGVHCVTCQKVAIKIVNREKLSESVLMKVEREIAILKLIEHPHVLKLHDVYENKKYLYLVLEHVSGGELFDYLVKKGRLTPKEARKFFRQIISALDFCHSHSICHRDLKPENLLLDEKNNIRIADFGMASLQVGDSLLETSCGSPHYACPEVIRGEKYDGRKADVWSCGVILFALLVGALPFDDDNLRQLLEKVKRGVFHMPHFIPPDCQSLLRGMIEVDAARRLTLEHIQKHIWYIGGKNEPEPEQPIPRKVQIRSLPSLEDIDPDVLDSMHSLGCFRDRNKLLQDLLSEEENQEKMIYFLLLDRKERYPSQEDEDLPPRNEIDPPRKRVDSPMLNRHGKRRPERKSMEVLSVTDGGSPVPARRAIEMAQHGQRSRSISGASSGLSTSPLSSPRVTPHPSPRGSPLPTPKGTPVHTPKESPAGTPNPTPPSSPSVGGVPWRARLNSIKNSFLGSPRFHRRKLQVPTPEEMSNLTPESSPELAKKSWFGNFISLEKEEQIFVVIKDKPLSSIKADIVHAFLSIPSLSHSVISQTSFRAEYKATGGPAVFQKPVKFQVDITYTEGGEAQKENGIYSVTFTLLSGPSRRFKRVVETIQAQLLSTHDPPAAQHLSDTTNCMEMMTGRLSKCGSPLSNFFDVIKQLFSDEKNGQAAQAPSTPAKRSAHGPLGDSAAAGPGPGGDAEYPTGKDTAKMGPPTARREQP

Work on `NC(=O)c1cc(-c2ccnc(NC3CCCCC3)c2)nc(N2CCNCC2)c1` yielded a residual activity (AURKA (human); compound 0.1 µM) of 92%, a residual activity (AURKA (human); compound 1.0 µM) of 88% and a residual activity (AURKA (human); compound 10.0 µM) of 112%. The residual activity (BRSK1 (human); compound 0.1 µM) was 96%, the residual activity (BRSK1 (human); compound 1.0 µM) was 73% and the residual activity (BRSK1 (human); compound 10.0 µM) was 26%. For the same compound, the residual activity (BRSK2 (human); compound 0.1 µM) was 67%, the residual activity (BRSK2 (human); compound 1.0 µM) was 26% and the residual activity (BRSK2 (human); compound 10.0 µM) was 8%. It also gave a residual activity (CDK2 CCNA2 (human); compound 0.1 µM) of 66%, a residual activity (CDK2 CCNA2 (human); compound 1.0 µM) of 30% and a residual activity (CDK2 CCNA2 (human); compound 10.0 µM) of 11%. For the same compound, the residual activity (CLK2 (human); compound 0.1 µM) was 78%, the residual activity (CLK2 (human); compound 10.0 µM) was 51% and the residual activity (CSK (human); compound 0.1 µM) was 113%. The residual activity (CSK (human); compound 1.0 µM) was 116%, the residual activity (CSK (human); compound 10.0 µM) was 90% and the residual activity (CSNK1D (human); compound 0.1 µM) was 75%. For the same compound, the residual activity (CSNK1D (human); compound 1.0 µM) was 42%, the residual activity (CSNK1D (human); compound 10.0 µM) was 18% and the residual activity (EPHA4 (human); compound 0.1 µM) was 90%. It also gave a residual activity (EPHA4 (human); compound 1.0 µM) of 78%, a residual activity (EPHA4 (human); compound 10.0 µM) of 48% and a residual activity (EPHB2 (human); compound 0.1 µM) of 105%. It also gave a residual activity (FGFR1 (human); compound 0.1 µM) of 110%, a residual activity (FGFR1 (human); compound 1.0 µM) of 85% and a residual activity (FGFR1 (human); compound 10.0 µM) of 82%. It also gave a residual activity (FLT1 (human); compound 0.1 µM) of 95%, a residual activity (FLT1 (human); compound 1.0 µM) of 88% and a residual activity (FLT1 (human); compound 10.0 µM) of 68%. It also gave a residual activity (INSR (human); compound 0.1 µM) of 89%, a residual activity (INSR (human); compound 1.0 µM) of 86% and a residual activity (INSR (human); compound 10.0 µM) of 93%. For the same compound, the residual activity (INSRR (human); compound 0.1 µM) was 100%, the residual activity (INSRR (human); compound 1.0 µM) was 107% and the residual activity (INSRR (human); compound 10.0 µM) was 97%. The residual activity (IRAK4 (human); compound 0.1 µM) was 96%, the residual activity (IRAK4 (human); compound 1.0 µM) was 127% and the residual activity (IRAK4 (human); compound 10.0 µM) was 92%. It also gave a residual activity (JAK2 JH1 JH2 (human); compound 0.1 µM) of 82%, a residual activity (JAK2 JH1 JH2 (human); compound 1.0 µM) of 87% and a residual activity (JAK2 JH1 JH2 (human); compound 10.0 µM) of 89%. The residual activity (MAP2K2 (human); compound 0.1 µM) was 106%, the residual activity (MAP2K2 (human); compound 1.0 µM) was 123% and the residual activity (MAP2K2 (human); compound 10.0 µM) was 115%. The residual activity (MAP3K11 (human); compound 0.1 µM) was 93%, the residual activity (MAP3K11 (human); compound 1.0 µM) was 86% and the residual activity (MAP3K11 (human); compound 10.0 µM) was 81%. The residual activity (MAP3K7 TAB1 (human); compound 0.1 µM) was 94%, the residual activity (MAP3K7 TAB1 (human); compound 1.0 µM) was 100% and the residual activity (MAP3K7 TAB1 (human); compound 10.0 µM) was 55%. It also gave a residual activity (MAPK12 (human); compound 0.1 µM) of 95%, a residual activity (MAPK12 (human); compound 1.0 µM) of 96% and a residual activity (MAPK12 (human); compound 10.0 µM) of 58%. It also gave a residual activity (MAPK8 (human); compound 0.1 µM) of 109%, a residual activity (MAPK8 (human); compound 1.0 µM) of 100% and a residual activity (MAPK8 (human); compound 10.0 µM) of 38%. It also gave a residual activity (MAPKAPK3 (human); compound 0.1 µM) of 92%, a residual activity (MAPKAPK3 (human); compound 1.0 µM) of 100% and a residual activity (MAPKAPK3 (human); compound 10.0 µM) of 92%. It also gave a residual activity (MARK4 (human); compound 0.1 µM) of 87%, a residual activity (MARK4 (human); compound 1.0 µM) of 46% and a residual activity (MARK4 (human); compound 10.0 µM) of 10%. For the same compound, the residual activity (MELK (human); compound 0.1 µM) was 108%, the residual activity (MELK (human); compound 1.0 µM) was 78% and the residual activity (MELK (human); compound 10.0 µM) was 40%. The residual activity (MYLK (human); compound 0.1 µM) was 85%, the residual activity (MYLK (human); compound 1.0 µM) was 40% and the residual activity (MYLK (human); compound 10.0 µM) was 10%. The residual activity ([1]; compound 0.1 µM) was 105%, the residual activity ([1]; compound 1.0 µM) was 93% and the residual activity ([1]; compound 10.0 µM) was 57%. For the same compound, the residual activity (PIM1 (human); compound 0.1 µM) was 114%, the residual activity (PIM1 (human); compound 1.0 µM) was 98% and the residual activity (PIM1 (human); compound 10.0 µM) was 65%. The residual activity (PIM3 (human); compound 0.1 µM) was 97%, the residual activity (PIM3 (human); compound 1.0 µM) was 58% and the residual activity (PIM3 (human); compound 10.0 µM) was 42%. The residual activity (PLK1 (human); compound 0.1 µM) was 101%, the residual activity (PLK1 (human); compound 1.0 µM) was 117% and the residual activity (PLK1 (human); compound 10.0 µM) was 111%. The residual activity (RIPK2 (human); compound 0.1 µM) was 96%, the residual activity (RIPK2 (human); compound 1.0 µM) was 96% and the residual activity (RIPK2 (human); compound 10.0 µM) was 79%. It also gave a residual activity (RPS6KA3 KD1 KD2 (human); compound 0.1 µM) of 98%, a residual activity (RPS6KA3 KD1 KD2 (human); compound 10.0 µM) of 81% and a residual activity ([2]; compound 0.1 µM) of 92%. The residual activity ([2]; compound 1.0 µM) was 96%, the residual activity ([2]; compound 10.0 µM) was 94% and the residual activity ([3]; compound 10.0 µM) was 90%. For the same compound, the residual activity (SYK (human); compound 0.1 µM) was 90%, the residual activity (SYK (human); compound 1.0 µM) was 104% and the residual activity (SYK (human); compound 10.0 µM) was 92%. For the same compound, the residual activity (TBK1 (human); compound 1.0 µM) was 88%, the residual activity (TBK1 (human); compound 10.0 µM) was 30% and the residual activity (TTK (human); compound 0.1 µM) was 111%. It also gave a residual activity (TTK (human); compound 1.0 µM) of 87% and a residual activity (TTK (human); compound 10.0 µM) of 79%.
`Cc1ccc2c(c1)C(=O)[C@@]1(O)CCN(c3ccccc3)C1=N2` was tested, and the residual activity (AURKA (human); compound 10.0 µM) was 99%, the residual activity (BRSK1 (human); compound 10.0 µM) was 106% and the residual activity (BRSK2 (human); compound 10.0 µM) was 98%. The residual activity (CDK2 CCNA2 (human); compound 10.0 µM) was 116%, the residual activity (CDK2 CCNA2 (human); compound 100.0 µM) was 92% and the residual activity (CLK2 (human); compound 10.0 µM) was 87%. For the same compound, the residual activity (CSK (human); compound 10.0 µM) was 69%, the residual activity (CSK (human); compound 100.0 µM) was 67% and the residual activity (CSNK1D (human); compound 10.0 µM) was 99%. For the same compound, the residual activity (CSNK1D (human); compound 100.0 µM) was 91%, the residual activity (EPHA4 (human); compound 10.0 µM) was 108% and the residual activity (EPHB2 (human); compound 10.0 µM) was 116%. It also gave a residual activity (FGFR1 (human); compound 10.0 µM) of 118%, a residual activity (FLT1 (human); compound 10.0 µM) of 85% and a residual activity (INSR (human); compound 10.0 µM) of 95%. It also gave a residual activity (INSRR (human); compound 10.0 µM) of 88%, a residual activity (IRAK4 (human); compound 10.0 µM) of 86% and a residual activity (JAK2 JH1 JH2 (human); compound 10.0 µM) of 101%. The residual activity (MAP2K2 (human); compound 10.0 µM) was 81%, the residual activity (MAP3K11 (human); compound 10.0 µM) was 73% and the residual activity (MAP3K7 TAB1 (human); compound 10.0 µM) was 96%. For the same compound, the residual activity (MAPK12 (human); compound 10.0 µM) was 99%, the residual activity (MAPK12 (human); compound 100.0 µM) was 80% and the residual activity (MAPK8 (human); compound 10.0 µM) was 92%. The residual activity (MAPK8 (human); compound 100.0 µM) was 78%, the residual activity (MAPKAPK3 (human); compound 10.0 µM) was 86% and the residual activity (MARK4 (human); compound 10.0 µM) was 94%. For the same compound, the residual activity (MELK (human); compound 10.0 µM) was 96%, the residual activity (MYLK (human); compound 10.0 µM) was 74% and the residual activity ([1]; compound 10.0 µM) was 87%. The residual activity (PIM1 (human); compound 10.0 µM) was 87%, the residual activity (PIM3 (human); compound 10.0 µM) was 83% and the residual activity (PLK1 (human); compound 10.0 µM) was 99%. For the same compound, the residual activity (RIPK2 (human); compound 10.0 µM) was 90%, the residual activity (RPS6KA3 KD1 KD2 (human); compound 10.0 µM) was 72% and the residual activity ([2]; compound 10.0 µM) was 92%. For the same compound, the residual activity ([2]; compound 100.0 µM) was 71%, the residual activity ([3]; compound 10.0 µM) was 101% and the residual activity ([3]; compound 100.0 µM) was 60%. It also gave a residual activity (SYK (human); compound 10.0 µM) of 105%, a residual activity (TBK1 (human); compound 10.0 µM) of 94% and a residual activity (TTK (human); compound 10.0 µM) of 87%.
